# ChEMBL document CHEMBL1124432, “(6R,6S)-5,8,10-trideaza-5,6,7,8-tetrahydrofolate and 6(R,6S)-5,8,10-trideaza-5,6,7,8-tetrahydropteroyl-L-ornithine as potential antifolates and antitumor agents” (J Med Chem, 1989)
# B1: Folylpolyglutamate synthase, mitochondrial (Mus musculus), P48760 (protein)
# chain: MSWARSRLCSTLSLAAVSARGATTEGAARRGMSAWPAPQEPGMEYQDAVRTLNTLQTNASYLEQVKRQRSDPQAQLEAMEMYLARSGLQVEDLNRLNIIHVTGTKGKGSTCAFTERILRNYGLKTGFFSSPHMVQVRERIRINGKPISPELFTKHFWCLYNQLEEFKDDSHVSMPSYFRFLTLMAFHVFLQEKVDLAVVEVGIGGAFDCTNIIRKPVVCGVSSLGIDHTSLLGDTVEKIAWQKGGIFKPGVPAFTVVQPEGPLAVLRDRAQQIGCPLYLCPPLEALEEVGLPLSLGLEGAHQRSNAALALQLAHCWLERQDHQDIQELKVSRPSIRWQLPLAPVFRPTPHMRRGLRDTVWPGRTQILQRGPLTWYLDGAHTTSSVQACVHWYRQSLERSKRTDGGSEVHILLFNSTGDRDSAALLKLLQPCQFDYAVFCPNVTEVSSIGNADQQNFTVTLDQVLLRCLQHQQHWNGLAEKQASSNLWSSCGPDPAGPGSLLLAPHPPQPTRTSSLVFSCISHALLWISQGRDPIFQPQSLPRNLLNHPTANSGASILREAAAIHVLVTGSLHLVGGVLKLLDPSMSQ
# Assays:
# [1] = tested on: L1210; assay: Inhibitory activity against the growth of murine L1210 leukemia cells; value ranges from 20-60; assay type: functional, cell-based; details: Mus musculus
# [2] = Inhibitory activity against the growth of SSC15 human squamous carcinoma cells; value ranges from 20-60; assay type: functional
# [3] = tested on: CCRF-CEM; assay: Inhibitory activity against the growth of CEM human leukoblast cells; value ranges from 20-60; assay type: functional, cell-based
# [4] = biological target: T1, Folylpolyglutamate synthase, mitochondrial (Mus musculus) (UniProt P48760); assay: (§1) The apparent Km of compound as a substrate for partially purified mouse liver Folyl-polyglutamate synthase
# T1 sequence (whole entry): B1 chain
# [5] = substrate: Nc1nc(O)c2c(n1)NCC(CNc1ccc(C(=O)N[C@@H](CCC(=O)O)C(=O)O)cc1)N2; assay: as §1
# [6] = substrate: Nc1nc(O)c2c(n1)CCC(CCc1ccc(C(=O)NC(CCC(=O)O)C(=O)O)cc1)C2; assay: as §1
# [7] = substrate: Nc1nc(N)c2nc(CNc3ccc(C(=O)N[C@@H](CCC(=O)O)C(=O)O)cc3)cnc2n1; assay: as §1
molecule,measurement,setting,value
Nc1nc(O)c2cc(CCc3ccc(C(=O)N[C@@H](CCC(=O)O)C(=O)O)cc3)cnc2n1,IC50,[1],60 nM
same,IC50,[2],60 nM
same,IC50,[3],60 nM
NCCCC(NC(=O)c1ccc(CCC2CCc3nc(N)nc(O)c3C2)cc1)C(=O)O (configuration not stated),Kis,[4],10.1 µM
B1,Km,[5],8 µM
same,Km,[6],1.54 µM
same,Km,[7],20 µM
